From patent US10273222B2 (CELGENE QUANTICEL RESEARCH, INC., priority 2013, dated 2019)

Key:
[1] = target: FBXL10 (Homo sapiens (Human), UniProt Q8NHM5); experiment: FBXL10 in vitro enzyme inhibition assay (AlphaScreen); assay type: biochemical
In short: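 AlphaScreen read-out of H3K36me1 product, detected with anti-H3K36me1 antibody plus streptavidin donor and Protein A acceptor beads (final 10 μg/ml) in 50 mM HEPES pH 7.3, 10 mM NaCl, 0.005% Brij35, 5 mM EDTA, 2 mg/ml BSA. Beads incubated 2 h to overnight at room temperature; IC50 derived from AlphaScreen signal.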

[2] = target: Jarid1A (Homo sapiens (Human), UniProt P29375); experiment: Jarid1A in vitro enzyme inhibition assay (TR-FRET); assay type: biochemical
Description: The enzymatic assay of Jarid1A activity is based upon Time Resolved-Fluorescence Resonance Energy Transfer (TR-FRET) detection.

[3] = target: Jarid1B (Homo sapiens (Human), UniProt Q9UGL1); experiment: Jarid1B in vitro enzyme inhibition assay (TR-FRET); assay type: biochemical
Description: This assay determines the ability of a test compound to inhibit Jarid1A, Jarid1B, JMJD2C, and JMJD2A demethylase activity.
The ability of test compounds to inhibit the activity of Jarid1B was determined in 384-well plate format under the following reaction conditions: 0.8 nM Jarid1B, 300 nM H3K4me3-biotin labeled peptide (Anaspec cat #64357), 2 μM alpha-ketoglutaric acid in assay buffer of 50 mM HEPES, pH7.3, 0.005% Brij35, 0.5 mM TCEP, 0.2 mg/ml BSA, 50 μM sodium L-ascorbate, and 2 μM ammonium iron(II) sulfate. Reaction product was determined quantitatively by TR-FRET after the addition of detection reagent Phycolink Streptavidin-allophycocyanin (Prozyme) and Europium-anti-mono- or di-methylated histone H3 lysine 4 (H3K4me1-2) antibody (PerkinElmer) in the presence of 5 mM EDTA in LANCE detection buffer (PerkinElmer) at a final concentration of 25 nM and 1 nM, respectively.
The assay reaction was initiated by the following: 2 μl of the mixture of 900 nM H3K4me3-biotin labeled peptide and 6 μM alpha-ketoglutaric acid with 2 μl of 11-point serial diluted inhibitor in 3% DMSO was added to each well of the plate, followed by the addition of 2 μl of 2.4 nM Jarid1B to initiate the reaction. The reaction mixture was incubated at room temperature for 30 minutes, and terminated by the addition of 6 μl of 5 mM EDTA in LANCE detection buffer containing 50 nM Phycolink Streptavidin-allophycocyanin and 2 nM Europium-anti-H3K4me1-2 antibody. Plates were read by EnVisionMultilabel Reader in TR-FRET mode (excitation at 320 nm, emission at 615 nm and 665 nm) after 1 hour incubation at room temperature. A ratio was calculated (665/615) for each well and fitted to determine inhibition constant (IC50).

[4] = target: JMJD2A (Homo sapiens (Human), UniProt O75164); experiment: JMJD2A in vitro enzyme inhibition assay (TR-FRET); assay type: biochemical
Description: This assay determines the ability of a test compound to inhibit Jarid1A, Jarid1B, JMJD2C, and JMJD2A demethylase activity. […] Baculovirus expressed JMJD2A (GenBank Accession #NM_014663, AA 1-350) was purchased from BPS Bioscience (Cat#50123).
The ability of test compounds to inhibit the activity of JMJD2A was determined in 384-well plate format under the following reaction conditions: 2 nM JMJD2A, 300 nM H3K9me3-biotin labeled peptide (Anaspec cat #64360), 2 μM alpha-ketoglutaric acid in assay buffer of 50 mM HEPES, pH7.3, 0.005% Brij35, 0.5 mM TCEP, 0.2 mg/ml BSA, 50 μM sodium L-ascorbate, and 2 μM ammonium iron(II) sulfate. Reaction product was determined quantitatively by TR-FRET after the addition of detection reagent Phycolink Streptavidin-allophycocyanin (Prozyme) and Europium-anti-di-methylated histone H3 lysine 9 (H3K9me2) antibody (PerkinElmer) in the presence of 5 mM EDTA in LANCE detection buffer (PerkinElmer) at a final concentration of 50 nM and 1 nM, respectively.
The assay reaction was initiated by the following: 2 μl of the mixture of 900 nM H3K9me3-biotin labeled peptide and 6 μM alpha-ketoglutaric acid with 2 μl of 11-point serial diluted inhibitor in 3% DMSO were added to each well of plate, followed by the addition of 2 μl of 6 nM JMJD2A to initiate the reaction. The reaction mixture was incubated at room temperature for 30 minutes, and terminated by the addition of 6 μl of 5 mM EDTA in LANCE detection buffer containing 100 nM Phycolink Streptavidin-allophycocyanin and 2 nM Europium-anti-H3K9me2 antibody. Plates were read by EnVisionMultilabel Reader in TR-FRET mode (excitation at 320 nm, emission at 615 nm and 665 nm) after 1 hour incubation at room temperature. A ratio was calculated (665/615) for each well and fitted to determine inhibition constant (IC50).

[5] = tested on: KDM5A and KDM5B; experiment: In vitro cell-based assay: tri-methyl H3K4 immuno-blotting in ZR-75-1 cells (cellular inhibition of KDM5A/B); conditions: ZR-75-1 breast cancer cells, 72 hours, tri-methylated H3K4 level; read-out: IC50 ZR-75-1 cell-MOA
Description: This quantitative immuno-blotting assay measures the amount tri-methylated histone H3 at amino acid Lysine number 4, a specific substrate and product of the direct enzymatic activity of the histone demethylases KDM5A and KDM5B from extracts of the ZR-75-1 breast cancer cell line.
This assay is a fluorometric immunoassay for the quantification of tri-methyl H3K4 extracted from cells treated with test compound and is used as a measure of the cellular inhibition of KDM5A/B.
Extracts were prepared containing all of the cellular histone material using detergent based lysis and sonication methods. These lysates were subsequently normalized for total protein content using a colorimetric bicinchonic acid assay (MicroBCA Pierce/Thermo Scientific). Normalized cell extracts were then subjected to typical immuno-blotting procedures using NuPage reagents (Life Technologies). Electrophoretically separated histones were then transferred and immobilized using polyvinylidene difluoride membrane (Immobilon-FL Millipore). The amount of tri-methylated lysine 4 of histone H3 was detected using an antibody specific to the tri-methylated state (Cell Signaling Technologies) and quantified on an infrared imager using a densitometry software package (Odyssey CLx, Image Studio, Li-Cor). This background subtracted densitometry value was reported as a ration of the GAPDH amount for that sample and then calculated as a percent of the DMSO treated sample. The software package XL-fit (IDBS) was then used to calculate a relative IC50 value for the dilution series of a given test compound according to the equation: fit=(D+((Vmax*(x^n))/((x^n)+(Km^n)))).

[6] = target: JMJD2C (Homo sapiens (Human), UniProt Q9H3R0); experiment: JMJD2C in vitro enzyme inhibition assay (TR-FRET); assay type: biochemical
Chain of JMJD2C (Q9H3R0 2-372): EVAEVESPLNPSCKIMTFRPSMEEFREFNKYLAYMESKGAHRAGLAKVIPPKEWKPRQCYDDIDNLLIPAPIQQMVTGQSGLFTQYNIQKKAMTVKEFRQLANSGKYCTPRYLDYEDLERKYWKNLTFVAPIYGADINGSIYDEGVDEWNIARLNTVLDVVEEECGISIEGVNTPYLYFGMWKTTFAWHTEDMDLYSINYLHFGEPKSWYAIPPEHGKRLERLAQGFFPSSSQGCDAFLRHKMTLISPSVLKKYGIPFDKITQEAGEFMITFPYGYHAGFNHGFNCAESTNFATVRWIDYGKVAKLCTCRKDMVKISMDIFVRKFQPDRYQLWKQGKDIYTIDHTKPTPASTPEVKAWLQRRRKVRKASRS
Description: This assay determines the ability of a test compound to inhibit Jarid1A, Jarid1B, JMJD2C, and JMJD2A demethylase activity. […] Baculovirus expressed JMJD2C (GenBank Accession #BC143571, AA 2-372) was purchased from BPS Bioscience (Cat#50105).
The ability of test compounds to inhibit the activity of JMJD2C was determined in 384-well plate format under the following reaction conditions: 0.3 nM JMJD2C, 300 nM H3K9me3-biotin labeled peptide (Anaspec cat #64360), 2 μM alpha-ketoglutaric acid in assay buffer of 50 mM HEPES, pH7.3, 0.005% Brij35, 0.5 mM TCEP, 0.2 mg/ml BSA, 50 μM sodium L-ascorbate, and 2 μM ammonium iron(II) sulfate. Reaction product was determined quantitatively by TR-FRET after the addition of detection reagent Phycolink Streptavidin-allophycocyanin (Prozyme) and Europium-anti-di-methylated histone H3 lysine 9 (H3K9me2) antibody (PerkinElmer) in the presence of 5 mM EDTA in LANCE detection buffer (PerkinElmer) at a final concentration of 50 nM and 1 nM, respectively.
The assay reaction was initiated by the following: 2 μl of the mixture of 900 nM H3K9me3-biotin labeled peptide and 6 μM alpha-ketoglutaric acid with 2 μl of 11-point serial diluted inhibitor in 3% DMSO were added to each well of the plate, followed by the addition of 2 μl of 0.9 nM JMJD2C to initiate the reaction. The reaction mixture was incubated at room temperature for 30 minutes, and terminated by the addition of 6 μl of 5 mM EDTA in LANCE detection buffer containing 100 nM Phycolink Streptavidin-allophycocyanin and 2 nM Europium-anti-H3K9me2 antibody. Plates were read by EnVisionMultilabel Reader in TR-FRET mode (excitation at 320 nm, emission at 615 nm and 665 nm) after 1 hour incubation at room temperature. A ratio was calculated (665/615) for each well and fitted to determine inhibition constant (IC50).

Chain of Jarid1A (P29375 1-1090): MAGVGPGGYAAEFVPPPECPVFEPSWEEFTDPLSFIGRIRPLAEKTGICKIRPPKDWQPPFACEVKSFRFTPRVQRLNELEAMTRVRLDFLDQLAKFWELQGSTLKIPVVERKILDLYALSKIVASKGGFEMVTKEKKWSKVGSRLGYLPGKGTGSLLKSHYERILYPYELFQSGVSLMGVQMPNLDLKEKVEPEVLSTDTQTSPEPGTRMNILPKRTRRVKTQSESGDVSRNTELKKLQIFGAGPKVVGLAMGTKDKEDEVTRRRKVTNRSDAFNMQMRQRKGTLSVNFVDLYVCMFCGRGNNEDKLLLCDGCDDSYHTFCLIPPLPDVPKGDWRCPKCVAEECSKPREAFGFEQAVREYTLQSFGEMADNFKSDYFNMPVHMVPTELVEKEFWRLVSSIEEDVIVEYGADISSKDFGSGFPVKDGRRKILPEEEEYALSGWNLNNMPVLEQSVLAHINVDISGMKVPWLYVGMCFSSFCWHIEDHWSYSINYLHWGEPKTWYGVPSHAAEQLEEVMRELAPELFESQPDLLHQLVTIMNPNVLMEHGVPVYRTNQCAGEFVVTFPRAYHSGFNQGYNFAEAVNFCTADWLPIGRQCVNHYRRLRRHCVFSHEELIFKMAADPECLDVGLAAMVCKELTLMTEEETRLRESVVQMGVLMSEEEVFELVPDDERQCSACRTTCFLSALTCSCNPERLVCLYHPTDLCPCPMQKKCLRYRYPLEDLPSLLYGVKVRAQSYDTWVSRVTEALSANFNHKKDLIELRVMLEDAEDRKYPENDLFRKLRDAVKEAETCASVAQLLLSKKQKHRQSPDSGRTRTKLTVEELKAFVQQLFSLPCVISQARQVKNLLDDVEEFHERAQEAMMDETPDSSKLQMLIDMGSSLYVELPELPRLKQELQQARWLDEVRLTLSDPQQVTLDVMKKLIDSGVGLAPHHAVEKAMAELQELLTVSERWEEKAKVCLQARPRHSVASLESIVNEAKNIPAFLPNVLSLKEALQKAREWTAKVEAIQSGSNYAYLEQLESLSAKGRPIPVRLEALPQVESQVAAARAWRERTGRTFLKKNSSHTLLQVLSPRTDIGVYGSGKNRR
Chain of Jarid1B (Q9UGL1 2-751): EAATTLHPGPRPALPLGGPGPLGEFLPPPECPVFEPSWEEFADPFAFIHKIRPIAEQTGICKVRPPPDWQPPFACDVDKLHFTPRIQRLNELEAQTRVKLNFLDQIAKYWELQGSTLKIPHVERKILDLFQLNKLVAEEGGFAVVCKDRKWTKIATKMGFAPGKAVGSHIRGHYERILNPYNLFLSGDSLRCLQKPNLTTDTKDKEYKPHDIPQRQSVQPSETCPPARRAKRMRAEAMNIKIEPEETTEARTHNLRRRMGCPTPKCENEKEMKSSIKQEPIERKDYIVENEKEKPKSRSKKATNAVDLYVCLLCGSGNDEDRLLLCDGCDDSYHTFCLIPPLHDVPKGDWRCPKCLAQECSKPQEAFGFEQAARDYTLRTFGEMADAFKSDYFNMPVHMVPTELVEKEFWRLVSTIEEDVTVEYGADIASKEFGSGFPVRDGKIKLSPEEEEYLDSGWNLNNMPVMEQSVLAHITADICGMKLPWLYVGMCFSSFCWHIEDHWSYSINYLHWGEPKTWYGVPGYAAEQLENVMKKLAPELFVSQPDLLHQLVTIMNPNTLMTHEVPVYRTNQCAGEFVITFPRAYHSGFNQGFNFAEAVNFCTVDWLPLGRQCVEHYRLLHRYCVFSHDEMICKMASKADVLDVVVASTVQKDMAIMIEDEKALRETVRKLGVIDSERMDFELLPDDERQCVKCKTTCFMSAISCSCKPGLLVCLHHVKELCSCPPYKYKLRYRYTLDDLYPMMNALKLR
Chain of JMJD2A (O75164 1-350): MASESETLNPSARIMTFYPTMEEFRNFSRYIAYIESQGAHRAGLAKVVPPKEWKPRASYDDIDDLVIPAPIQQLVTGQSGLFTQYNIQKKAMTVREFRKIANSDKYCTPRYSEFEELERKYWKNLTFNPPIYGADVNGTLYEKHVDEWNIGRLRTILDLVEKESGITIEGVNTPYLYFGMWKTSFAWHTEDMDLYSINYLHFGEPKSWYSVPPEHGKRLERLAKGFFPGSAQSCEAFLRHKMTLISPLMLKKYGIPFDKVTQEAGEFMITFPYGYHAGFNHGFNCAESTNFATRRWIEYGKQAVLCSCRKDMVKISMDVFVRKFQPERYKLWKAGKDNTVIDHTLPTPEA
Chain of FBXL10 (Q8NHM5 1-650): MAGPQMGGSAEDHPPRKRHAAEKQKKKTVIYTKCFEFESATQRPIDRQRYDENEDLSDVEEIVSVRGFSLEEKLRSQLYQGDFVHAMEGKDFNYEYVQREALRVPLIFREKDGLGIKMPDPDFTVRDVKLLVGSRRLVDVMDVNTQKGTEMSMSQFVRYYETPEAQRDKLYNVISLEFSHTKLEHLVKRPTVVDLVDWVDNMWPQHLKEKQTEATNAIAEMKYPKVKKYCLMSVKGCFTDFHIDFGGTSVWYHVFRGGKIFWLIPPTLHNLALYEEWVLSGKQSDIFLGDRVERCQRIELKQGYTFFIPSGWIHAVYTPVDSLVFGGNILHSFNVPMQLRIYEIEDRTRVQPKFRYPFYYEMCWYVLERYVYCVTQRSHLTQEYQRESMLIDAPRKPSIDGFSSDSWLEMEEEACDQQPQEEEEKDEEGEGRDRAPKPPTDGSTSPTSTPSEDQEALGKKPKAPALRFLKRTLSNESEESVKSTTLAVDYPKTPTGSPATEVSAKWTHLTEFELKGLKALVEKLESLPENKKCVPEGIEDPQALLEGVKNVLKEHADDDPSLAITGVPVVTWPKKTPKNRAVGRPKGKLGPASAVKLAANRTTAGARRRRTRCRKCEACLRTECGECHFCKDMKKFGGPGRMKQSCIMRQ

Compound	IC50 [1] [nM]	IC50 [2] [nM]	IC50 [3] [nM]	IC50 [4] [nM]	IC50 [5] [nM]	IC50 [6] [nM]
O=C(O)c1ccnc(-c2cn(C3Cc4ccccc4C3)cn2)c1 [Example 99, 2-[1-(2,3-dihydro-1H-inden-2-yl)imidazol-4-yl]pyridine-4-carboxylic acid]	≤ 100	≤ 100	≤ 100	100 to 1000	1000 to 10000	100 to 1000
Cn1cnc(-c2cc(-c3nn[nH]n3)ccn2)c1 [Example 62, 2-(1-methyl-1H-imidazol-4-yl)-4-(2H-tetrazol-5-yl)pyridine]	≤ 100	100 to 1000	100 to 1000	> 10000	> 10000	> 10000
Cn1cnc(-c2cc(C(=O)O)ccn2)c1-c1ccc(Cl)cc1 [Example 19, 2-[5-(4-chlorophenyl)-1-methyl-1H-imidazol-4-yl]pyridine-4-carboxylic acid]	≤ 100	≤ 100	≤ 100	–	1000 to 10000	100 to 1000
O=C(O)c1ccnc(-c2cn(CCN3CCCc4ccccc43)cn2)c1 [Example 88, 2-[1-[2-(3,4-dihydro-2H-quinolin-1-yl)ethyl]imidazol-4-yl]pyridine-4-carboxylic acid]	≤ 100	≤ 100	≤ 100	≤ 100	1000 to 10000	100 to 1000
CC(Cc1ccccc1)n1cnc(-c2cc(C(=O)O)ccn2)c1 (stereo not drawn) [Example 106, 2-[1-(1-phenylpropan-2-yl)imidazol-4-yl]pyridine-4-carboxylic acid]	≤ 100	≤ 100	≤ 100	–	1000 to 10000	100 to 1000
Cn1cnc(-c2cc(C(=O)O)ccn2)c1 [Example 1, 2-(1-methyl-1H-imidazol-4-yl)pyridine-4-carboxylic acid]	≤ 100	≤ 100	≤ 100	≤ 100	> 10000	≤ 100
Cn1cnc(-c2cc(C(=O)O)ccn2)c1-c1ccc(C2CC2)cc1 [Example 7, 2-[5-(4-cyclopropylphenyl)-1-methyl-1H-imidazol-4-yl]pyridine-4-carboxylic acid]	100 to 1000	≤ 100	≤ 100	–	> 10000	1000 to 10000
Cn1cnc(-c2cc(C(=O)O)ccn2)c1-c1cccc(Cl)c1 [Example 20, 2-[5-(3-chlorophenyl)-1-methyl-1H-imidazol-4-yl]pyridine-4-carboxylic acid]	≤ 100	≤ 100	≤ 100	–	> 10000	100 to 1000
Cc1ccc(-c2c(-c3cc(C(=O)O)ccn3)ncn2C)cc1O [Example 3, 2-[5-(3-hydroxy-4-methylphenyl)-1-methyl-1H-imidazol-4-yl]pyridine-4-carboxylic acid]	100 to 1000	≤ 100	≤ 100	–	> 10000	1000 to 10000
Cn1cnc(-c2cc(C(=O)O)ccn2)c1-c1ccc(-n2cccn2)cc1 [Example 15, 2-{1-methyl-5-[4-(1H-pyrazol-1-yl)phenyl]-1H-imidazol-4-yl}pyridine-4-carboxylic acid]	100 to 1000	≤ 100	≤ 100	–	1000 to 10000	100 to 1000
CC(c1ccccc1)n1cnc(-c2cc(C(=O)O)ccn2)c1 (stereo not drawn) [Example 103]	≤ 100	≤ 100	≤ 100	≤ 100	1000 to 10000	≤ 100
O=C(O)c1ccnc(-c2cn(CCN3CCCC3)cn2)c1 [Example 43, 2-{1-[2-(pyrrolidin-1-yl)ethyl]-1H-imidazol-4-yl}pyridine-4-carboxylic acid]	1000 to 10000	≤ 100	≤ 100	≤ 100	> 10000	≤ 100
O=C(O)c1ccnc(-c2cn(CCN(Cc3ccc(F)cc3)C3CC3)cn2)c1 [Example 71, 2-[1-[2-[cyclopropyl-[(4-fluorophenyl)methyl]amino]ethyl]imidazol-4-yl]pyridine-4-carboxylic acid]	≤ 100	≤ 100	≤ 100	≤ 100	1000 to 10000	≤ 100
Cn1cnc(-c2cc(C(=O)O)ccn2)c1-c1ccc(F)cc1 [Example 23, 2-[5-(4-fluorophenyl)-1-methyl-1H-imidazol-4-yl]pyridine-4-carboxylic acid]	≤ 100	≤ 100	≤ 100	100 to 1000	1000 to 10000	100 to 1000
CCCn1cnc(-c2cc(C(=O)O)ccn2)c1-c1ccc(Cl)c(F)c1 [Example 35, 2-[5-(4-chloro-3-fluorophenyl)-1-propyl-1H-imidazol-4-yl]pyridine-4-carboxylic acid]	≤ 100	≤ 100	≤ 100	–	> 10000	100 to 1000

The remaining lines, values ahead:

IC50 [1] [nM]	IC50 [2] [nM]	IC50 [3] [nM]	IC50 [4] [nM]	IC50 [5] [nM]	IC50 [6] [nM]	Compound
≤ 100	≤ 100	≤ 100	100 to 1000	1000 to 10000	100 to 1000	O=C(O)c1ccnc(-c2cn(Cc3ccccc3F)cn2)c1 [Example 102, 2-[1-[(2-fluorophenyl)methyl]imidazol-4-yl]pyridine-4-carboxylic acid]
≤ 100	≤ 100	≤ 100	≤ 100	> 10000	≤ 100	O=C(O)c1ccnc(-c2cn(CCc3ccccc3C(F)(F)F)cn2)c1 [Example 98, 2-[1-[2-[2-(trifluoromethyl)phenyl]ethyl]imidazol-4-yl]pyridine-4-carboxylic acid]
≤ 100	≤ 100	≤ 100	100 to 1000	> 10000	100 to 1000	COc1ccccc1CCn1cnc(-c2cc(C(=O)O)ccn2)c1 [Example 95, 2-[1-[2-(2-methoxyphenyl)ethyl]imidazol-4-yl]pyridine-4-carboxylic acid]
≤ 100	≤ 100	≤ 100	100 to 1000	1000 to 10000	1000 to 10000	CC(C)(Cn1cnc(-c2cc(C(=O)O)ccn2)c1)c1ccccc1Cl [Example 105, 2-[1-[2-(2-chlorophenyl)-2-methylpropyl]imidazol-4-yl]pyridine-4-carboxylic acid]
≤ 100	≤ 100	≤ 100	100 to 1000	1000 to 10000	100 to 1000	Cc1ccccc1CCn1cnc(-c2cc(C(=O)O)ccn2)c1 [Example 96, 2-[1-[2-(2-methylphenyl)ethyl]imidazol-4-yl]pyridine-4-carboxylic acid]
≤ 100	≤ 100	≤ 100	≤ 100	1000 to 10000	100 to 1000	O=C(O)c1ccnc(-c2cn(CCc3ccccc3Cl)cn2)c1 [Example 97, 2-[1-[2-(2-chlorophenyl)ethyl]imidazol-4-yl]pyridine-4-carboxylic acid]
≤ 100	≤ 100	≤ 100	–	1000 to 10000	100 to 1000	O=C(O)c1ccnc(-c2cn(Cc3ccccc3)cn2)c1 [Example 100, 2-(1-benzylimidazol-4-yl)pyridine-4-carboxylic acid]
≤ 100	≤ 100	≤ 100	–	1000 to 10000	≤ 100	O=C(O)c1ccnc(-c2cn(CCc3ccccc3F)cn2)c1 [Example 93, 2-[1-[2-(2-fluorophenyl)ethyl]imidazol-4-yl]pyridine-4-carboxylic acid]
≤ 100	≤ 100	≤ 100	100 to 1000	1000 to 10000	100 to 1000	O=C(O)c1ccnc(-c2cn(Cc3ccc(F)cc3)cn2)c1 [Example 101, 2-[1-[(4-fluorophenyl)methyl]imidazol-4-yl]pyridine-4-carboxylic acid]
